Series [1] relates to BaF3. Kind of series: Antiproliferative activity against mouse BaF3 cells harboring FLT3-ITD-N676D mutant assessed as reduction in cell viability measured after 72 hrs by CellTiterGlo luminescent assay. The format is functional, cell-based. Conditions: BaF3, 72 h. In general terms: Cellular ATP, detected with luciferase, serves as a proxy for viable cell number.
Series [2] is described as follows: Antiproliferative activity against mouse BaF3 cells assessed as reduction in cell viability measured after 72 hrs by CellTiterGlo luminescent assay. It counts as toxicity, cell-based.
The test system of series [3] is BaF3. The series is described as follows: Antiproliferative activity against mouse BaF3 cells harboring FLT3-ITD-F691L mutant assessed as reduction in cell viability incubated for 72 hrs by CellTiterGlo luminescent assay. It counts as functional, cell-based. Conditions: BaF3, 72 h.
Series [4] concerns BaF3. The series is described as follows: Antiproliferative activity against mouse BaF3 cells harboring FLT3-ITD mutant assessed as reduction in cell viability measured after 72 hrs by CellTiterGlo luminescent assay. Conditions: BaF3, 72 h. The format is functional, cell-based.
The subject of series [5] is BaF3. Kind of series: cells. Conditions: Mus musculus, BaF3, 72 h.
Description: Antiproliferative activity against mouse BaF3 cells harboring FLT3-ITD-D835V mutant assessed as reduction in cell viability measured after 72 hrs by CellTiterGlo luminescent assay
In series [6] the test system is BaF3. The series is described as follows: Antiproliferative activity against mouse BaF3 cells harboring FLT3-ITD-Y842H mutant assessed as reduction in cell viability measured after 72 hrs by CellTiterGlo luminescent assay. The format is functional, cell-based. Conditions: BaF3, 72 h.
For series [7], the system named is BaF3. The format is functional, cell-based. Conditions: Mus musculus, BaF3, 72 h.
Series [8] deals with BaF3. The series is described as follows: Antiproliferative activity against mouse BaF3 cells harboring FLT3-ITD-F691L mutant assessed as residual cell viability at 10 nM incubated for 72 hrs by CellTiterGlo luminescent assay. The format is functional.
Series [9] concerns BaF3. Kind of series: Antiproliferative activity against mouse BaF3 cells harboring FLT3-ITD-F691L mutant assessed as residual cell viability at 0.1 uM incubated for 72 hrs by CellTiterGlo luminescent assay. The format is functional.
Series [10] has as its system BaF3. The series is described as follows: Antiproliferative activity against mouse BaF3 cells harboring FLT3-ITD-F691L mutant assessed as residual cell viability at 50 nM incubated for 72 hrs by CellTiterGlo luminescent assay. The format is functional.
The test system of series [11] is MV4-11. Kind of series: Antiproliferative activity against human MV4-11 cells assessed as inhibition of cell growth incubated for 72 hrs by CellTiterGlo luminescent assay. It counts as functional, cell-based. Conditions: MV4-11, 72 h.
The subject of series [12] is MV4-11. Kind of series: Antitumor activity against human MV4-11 cells xenografted in BALB/c mouse assessed as tumor growth inhibition at 30 mg/kg, iv QD for 21 days by vernier caliper analysis. The format is functional. Conditions: MV4-11, 504 h, time 21 day, read-out: TGI. (In general: A xenograft is tissue or cells of one species grown in another, often human tumour cells in immunodeficient mice.)

Series [13] can be described thus: Toxicity in BALB/c mouse xenografted with human MV4-11 cells assessed as mortality at 30 mg/kg, iv QD for 10 days. It counts as organism-based. Conditions: in vivo, 240 h, time 10 day.
Series [14] relates to MV4-11. The series is described as follows: Antitumor activity against human MV4-11 cells xenografted in BALB/c mouse assessed as inhibition rate of tumor weight at 30 mg/kg, iv QD for 21 days by vernier caliper analysis. It counts as functional. Conditions: MV4-11, 504 h, time 21 day.

The results in this text go back to ChEMBL document CHEMBL5226341, “Discovery of a Potent FLT3 Inhibitor (LT-850-166) with the Capacity of Overcoming a Variety of FLT3 Mutations” (J Med Chem, 2021).

The IC50 is the concentration that gives 50% inhibition.

Regarding `CC(C)(C)c1cc(NC(=O)Nc2ccc(-c3cn4c(n3)sc3cc(OCCN5CCOCC5)ccc34)cc2)no1` [QUIZARTINIB], the IC50 in the series with BaF3 [1] was 5.41 nM; in the series on BaF3 [3] it was 133 nM; in the series on BaF3 [4], 3.52 nM; in the series on BaF3 [5] it was 49.6 nM; with BaF3 [6], 15 nM; in the series on BaF3 [7] it was 27.1 nM. For the same compound, the IC50 at 72 h in series [2] was greater than 1000 nM.
On to `CCN1CCN(c2ccc(C(=O)Nc3cc(-c4ccc5ncn(Cc6ccccc6Cl)c5c4)[nH]n3)cc2)CC1`, for which the Activity in the series with BaF3 [8] came to 90.16%; in the series on BaF3 [9] it was 1.72%; with BaF3 [10], 19.95%. Further, the IC50 was determined as 29.2 nM in the series with BaF3 [3] and 12.4 nM in the series with MV4-11 [11].
As for `Nc1ccn([C@@H]2O[C@H](CO)[C@@H](O)[C@@H]2O)c(=O)n1` [CYTARABINE], the inhibition in vivo at 30 mg/kg was 66% in the series with MV4-11 [12] and 50.6% in the series with MV4-11 [14]. Besides, in series [13], the Activity result is recorded as “Toxic”.
